Measured values published in patent US12060347B2 (BRISTOL-MYERS SQUIBB COMPANY, priority 2016, dated 2024).

Target: T1, human PAR4 (Homo sapiens, UniProt Q96RI0)
T1 construct: expressed in transfected cells; host or cells: HEK293 PAR4 Clone 1.2A (BMS Arctic ID 383940)
T1 sequence (Q96RI0 18-385): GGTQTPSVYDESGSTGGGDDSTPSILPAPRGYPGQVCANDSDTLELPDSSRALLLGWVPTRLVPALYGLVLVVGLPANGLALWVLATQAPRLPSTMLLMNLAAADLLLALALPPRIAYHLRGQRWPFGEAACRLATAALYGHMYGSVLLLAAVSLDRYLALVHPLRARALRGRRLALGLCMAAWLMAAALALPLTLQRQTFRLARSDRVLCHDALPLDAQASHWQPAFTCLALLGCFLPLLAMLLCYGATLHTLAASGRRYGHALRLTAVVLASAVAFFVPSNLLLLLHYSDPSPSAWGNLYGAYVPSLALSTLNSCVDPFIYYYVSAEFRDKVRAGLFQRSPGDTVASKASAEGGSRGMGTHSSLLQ
Experiment: PAR4 FLIPR assay: antagonism of agonist-peptide-induced calcium mobilization in PAR4-expressing HEK293 cells
Assay type: cell-based
Details: H-Ala-Phe(4-F)-[…]NH2-induced intracellular calcium mobilization, 11-point curves

IC50 [nM]	SMILES
1.8	CCOc1cnc2c(-c3nc4cc(F)c(O[C@@H](C)[C@@H](C)OC(=O)Nc5cnc(CCO)nc5)cc4s3)cc(C)cc2n1 [Example 566, (2R,3S)-3-((2-(2-ethoxy-7-methylquinoxalin-5-yl)-5-fluorobenzo[d]thiazol-6-yl)oxy)butan-2-yl (2-(2-hydroxyethyl)pyrimidin-5-yl)carbamate]
250	COc1cc(CCO)c2nc(-c3cc(C)cc4nc(OC)cnc34)sc2c1 [Example 641, 2-(6-methoxy-2-(2-methoxy-7-methylquinoxalin-5-yl)benzo[d]thiazol-4-yl)ethanol]
2.9	COc1cnc2c(-c3nc4cc(F)c(OC[C@@H](C)OC(=O)Nc5ccnc(OCCO)c5)nc4s3)cc(C)cc2n1 [Example 697, (R)-1-((6-fluoro-2-(2-methoxy-7-methylquinoxalin-5-yl)thiazolo[5,4-b]pyridin-5-yl)oxy) propan-2-yl (2-(2-hydroxyethoxy)pyridin-4-yl)carbamate]
0.7	COCc1cnc2c(-c3nc4c(C)c(F)c(OC)cc4s3)cc(C)cc2n1 [Example 295, 5-fluoro-6-methoxy-2-(2-(methoxymethyl)-7-methylquinoxalin-5-yl)-4-methylbenzo[d]thiazole]
17	COc1cnc2c(-c3nc4cc(F)c(OC[C@@H](C)OC(=O)Nc5ccc6[nH]ccc6c5)cc4s3)cc(C)cc2n1 [Example 355, (R)-1-((5-fluoro-2-(2-methoxy-7-methylquinoxalin-5-yl)benzo[d]thiazol-6-yl)oxy)propan-2-yl 1H-indol-5-ylcarbamate]
0.5	COc1cnc2c(-c3nc4c(C)cc(OCCOC(=O)Nc5ccc(C#N)nc5)cc4s3)cc(C)cc2n1 [Example 117, 2-((2-(2-methoxy-7-methylquinoxalin-5-yl)-4-methylbenzo[d]thiazol-6-yl)oxy)ethyl (6-cyanopyridin-3-yl)carbamate]
2.5	COc1cnc2c(-c3nc4cc(F)c(OC[C@@H](C)OC(=O)Nc5cnc(OC)nc5)nc4s3)cc(C)cc2n1 [Example 679, (R)-1-((6-fluoro-2-(2-methoxy-7-methylquinoxalin-5-yl)thiazolo[5,4-b]pyridin-5-yl)oxy) propan-2-yl (2-methoxypyrimidin-5-yl)carbamate]
2.3	COc1cc(C(O)C2(C(F)(F)F)CCC2)c2nc(-c3cc(C)cc4nc(OC)cnc34)sc2c1 (centres unmarked) [Example 669]
51	COCc1cnc2c(-c3nc4c(C)cc(OCCNS(=O)(=O)c5ccc(F)cc5)cc4s3)cc(C(=O)OC)cc2n1 [Example 205, methyl 8-(6-(2-(4-fluorophenylsulfonamido)ethoxy)-4-methylbenzo[d]thiazol-2-yl)-3-(methoxymethyl)quinoxaline-6-carboxylate]
1.4	COCc1cnc2c(-c3nc4c(C)cc(OCCNS(=O)(=O)c5ccc(F)cc5)cc4s3)cc(C)cc2n1 [Example 29, 4-fluoro-N-(2-((2-(2-(methoxymethyl)-7-methylquinoxalin-5-yl)-4-methylbenzo[d]thiazol-6-yl)oxy)ethyl)benzenesulfonamide]
0.8	CNC(=O)c1ncc(NC(=O)O[C@H](C)[C@H](C)Oc2cc3sc(-c4cc(C)cc5nc(OC)cnc45)nc3cc2F)cn1 [Example 440, (2R,3S)-3-((5-fluoro-2-(2-methoxy-7-methylquinoxalin-5-yl)benzo[d]thiazol-6-yl)oxy)butan-2-yl (2-(methylcarbamoyl)pyrimidin-5-yl)carbamate]
15	COc1cnc2c(-c3nc4cc(F)c(OC[C@@H](C)OC(=O)Nc5cnc(N(C)C)nc5)cc4s3)cc(C)cc2n1 [Example 597, (R)-1-((5-fluoro-2-(2-methoxy-7-methylquinoxalin-5-yl)benzo[d]thiazol-6-yl)oxy)propan-2-yl (2-(dimethylamino)pyrimidin-5-yl)carbamate]
18	COc1cnc2c(-c3nc4c(F)c(F)c(OC)cc4s3)cc(C#N)cc2n1 [Example 217, 8-(4,5-difluoro-6-methoxybenzo[d]thiazol-2-yl)-3-methoxyquinoxaline-6-carbonitrile]
1300	COc1cnc2c(-c3nc4c(C)cc(OCCNS(=O)(=O)c5ccc(F)cc5)cc4s3)cc(CN)cc2n1 [Example 238, N-(2-((2-(7-(aminomethyl)-2-methoxyquinoxalin-5-yl)-4-methylbenzo[d]thiazol-6-yl)oxy)ethyl)-4-fluorobenzenesulfonamide]
0.5	COCc1cnc2c(-c3nc4c(C)c(F)c(OCC(=O)OC)cc4s3)cc(C)cc2n1 [Example 286, methyl 2-((5-fluoro-2-(2-(methoxymethyl)-7-methylquinoxalin-5-yl)-4-methylbenzo[d]thiazol-6-yl)oxy)acetate]
1.8	Cc1cc(-c2nc3cccc(NC(=O)OCC4CCCO4)c3s2)c2ncc(OC(F)F)nc2c1 (centres unmarked) [Example 22, (Tetrahydrofuran-2-yl)methyl (2-(2-(difluoromethoxy)-7-methylquinoxalin-5-yl)benzo[d]thiazol-7-yl)carbamate]

IC50 [nM]	SMILES
0.4	COc1cnc2c(-c3nc4cc(F)c(O[C@@H](C)[C@@H](C)OC(=O)Nc5ccnc(C(=O)NC[C@H](C)O)c5)cc4s3)cc(C)cc2n1 [Example 461, (2R,3S)-3-((5-fluoro-2-(2-methoxy-7-methylquinoxalin-5-yl)benzo[d]thiazol-6-yl)oxy)butan-2-yl (2-(((S)-2-hydroxypropyl)carbamoyl)pyridin-4-yl)carbamate]
0.9	COCc1cnc2c(-c3nc4c(CO)c(C)c(OC)cc4s3)cc(C)cc2n1 [Example 300]
2.5	COc1cnc2c(-c3nc4c(Cl)c(F)c(OCCOC(=O)Nc5ccncc5)cc4s3)cc(C)cc2n1 [Example 335, 2((4-chloro-5-fluoro-2-(2-methoxy-7-methylquinoxalin-5-yl)benzo[d]thiazol-6-yl)oxy)ethyl pyridin-4-ylcarbamate]
10	COCc1cnc2c(-c3nc4c(C5CC5)c(F)c(OC)cc4s3)cc(C)cc2n1 [Example 314, 4-cyclopropyl-5-fluoro-6-methoxy-2-(2-(methoxymethyl)-7-methylquinoxalin-5-yl)benzo[d]thiazole]
2.8	COCc1cnc2c(-c3nc4c(CO)cc(OC)nc4s3)cc(C)cc2n1 [Example 192, (5-methoxy-2-(2-(methoxymethyl)-7-methylquinoxalin-5-yl)thiazolo[5,4-b]pyridin-7-yl) methanol]
0.6	COc1cnc2c(-c3nc4cc(F)c(O[C@@H](C)[C@@H](C)OC(=O)Nc5ccnc(C(N)=O)c5)cc4s3)cc(C)cc2n1 [Example 453, (2R,3S)-3-((5-fluoro-2-(2-methoxy-7-methylquinoxalin-5-yl)benzo[d]thiazol-6-yl)oxy)butan-2-yl (2-carbamoylpyridin-4-yl)carbamate]
2300	COC(C)c1cnc2c(-c3cc4ccccc4o3)cc(C)cc2n1 (centres unmarked) [Example 184, 5-(benzofuran-2-yl)-2-(1-methoxyethyl)-7-methylquinoxaline]
0.3	[2H]C([2H])([2H])OC([2H])([2H])c1cnc2c(-c3nc4c(C(O)C(C)(C)C)cc(OC)cc4s3)cc(C)cc2n1 (single isomer, unassigned) [Example 170, 1-(6-methoxy-2-(2-(methoxymethyl)-7-methylquinoxalin-5-yl)benzo[d]thiazol-4-yl)-2,2-dimethylpropan-1-ol-d5]
2.3	COc1cnc2c(-c3nc4cc(F)c(OCC(COCc5ccccc5)OC(=O)Nc5cccnc5)cc4s3)cc(C)cc2n1 (centres unmarked) [Example 380, 1-(benzyloxy)-3-((5-fluoro-2-(2-methoxy-7-methylquinoxalin-5-yl)benzo[d]thiazol-6-yl)oxy)propan-2-yl pyridin-3-ylcarbamate]
21	COC(=O)Nc1cccc2nc(-c3cc(C)cc4nc(OC(F)F)cnc34)sc12 [Example 80, Methyl 2-(2-(difluoromethoxy)-7-methylquinoxalin-5-yl)benzo[d]thiazol-7-ylcarbamate]
2.9	Cc1cc(-c2nc3ccc(OCCNS(=O)(=O)c4ccccc4)cc3s2)c2ncc(OC(F)F)nc2c1 [Example 63, N-(2-(2-(2-(difluoromethoxy)-7-methylquinoxalin-5-yl)benzo[d]thiazol-6-yloxy)ethyl) benzenesulfonamide]
1.1	COc1cnc2c(-c3nc4cc(F)c(OC[C@@H](C)OC(=O)Nc5cnc(OCCO)nc5)cc4s3)cc(C)cc2n1 [Example 555, (R)-1-((5-fluoro-2-(2-methoxy-7-methylquinoxalin-5-yl)benzo[d]thiazol-6-yl)oxy)propan-2-yl (2-(2-hydroxyethoxy)pyrimidin-5-yl)carbamate]
4.1	COc1cnc2c(-c3nc4cc(F)c(O[C@@H](C)[C@@H](C)OC(=O)Nc5cnc(OC[C@H](C)O)nc5)cc4s3)cc(C)cc2n1 [Example 581, (2R,3S)-3-((5-fluoro-2-(2-methoxy-7-methylquinoxalin-5-yl)benzo[d]thiazol-6-yl)oxy)butan-2-yl (2-((S)-2-hydroxypropoxy)pyrimidin-5-yl)carbamate]
2.9	COc1cnc2c(-c3nc4cc(F)c(O[C@@H](C)[C@@H](C)OC(=O)Nc5ccc(C(C)O)nc5)nc4s3)cc(C)cc2n1 (single isomer, unassigned) [Example 766]
0.9	COCc1cnc2c(-c3nc4c(Cl)cc(Cl)cc4s3)cc(C)cc2n1 [Example 275, 4,6-dichloro-2-(2-(methoxymethyl)-7-methylquinoxalin-5-yl)benzo[d]thiazole]
220	Cc1cc(-c2cc3cc(OCc4ccccc4)ccc3o2)c2ncc(OC(F)F)nc2c1 [Example 44, 5-(5-(benzyloxy)benzofuran-2-yl)-2-(difluoromethoxy)-7-methylquinoxaline]
